Experimental data from patent US20230331803A1, “CO-AGONISTS OF THE GLP-1 AND AMYLIN RECEPTORS” (priority 2020, published 2023).
Where two headings read alike, the source gives them in different places. Starred links: 1 amine or outer side, 2 acyl side, 3 side chain; linkers in the order of their positions; H or OH if unused. Positions of bridges follow the written chain, without caps; N, C: chain ends. Non-standard residues stand in square brackets, D forms with d. Groups on a side chain read outwards from the residue. *: point of attachment. Decanoyl(10-(4-HOOC-PhO)) = O=C(O)c1ccc(OCCCCCCCCCC(=O)*)cc1; Hexadecanoyl(16-SO3H) = O=C(CCCCCCCCCCCCCCCS(=O)(=O)O)*; C20 diacid = O=C(O)CCCCCCCCCCCCCCCCCCC(=O)*; C18 diacid = O=C(O)CCCCCCCCCCCCCCCCC(=O)*; C16 diacid = O=C(O)CCCCCCCCCCCCCCC(=O)*; γGlu = O=C(O)[C@H](CCC(=O)[*:2])N[*:1]; C14 diacid = O=C(O)CCCCCCCCCCCCC(=O)*; Desaminohistidyl = O=C(CCc1c[nH]cn1)*; εLys = N[C@@H](CCCCN[*:1])C(=O)[*:2]; AEEA = NCCOCCOCC(=O)O; Aib = CC(C)(N)C(=O)O

What was measured:
[1] = biological target: T1, human GLP-1 receptor (Homo sapiens, UniProt P43220); test: Human GLP-1 receptor in vitro potency assay (CRE-luciferase reporter, BHK cells); format: cell-based
T1 construct: expressed in transfected cells; host or cells: BHK (Baby Hamster Kidney) cells, clone BHK 467-12A KZ-10, stably transfected, with CRE-luciferase reporter
Protocol: It is thus possible to measure GLP-1 receptor activity using a CRE-luciferase reporter gene introduced into Baby Hamster Kidney (BHK) cells co-expressing the GLP-1 receptor.
Cells were aliquoted and stored at -180° C. until use.
Plates were sealed and incubated at room temperature with gentle shaking for 30 minutes while protected from light. Luminescence was detected on a luminescence plate reader e.g. a Synergy 2 (BioTek).

[2] = biological target: T2, human amylin receptor (hAmyR3) (Homo sapiens, UniProt O60896+P30988); test: Human amylin receptor in vitro potency assay (CRE-luciferase reporter, BHK cells); format: cell-based; conditions: for Ability to agonise the amylin receptor, in words: Tables 4a-4c;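 for all read-outs here: BHK cells expressing human calcitonin receptor plus RAMP3 (amylin-3 receptor) with a CRE-luciferase reporter, agonist activity read as luminescence from cAMP-driven transcription, 7-point serial dilutions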
T2 construct: host or cells: BHK cells (Hollex-1 line: human calcitonin receptor (a) + CRE-Luc), further transfected with human RAMP3

[3] = Table 4a, BHK cells expressing human GLP-1R, CRE-Luc, 3 hours, read-out: Human GLP-1R potency [EC50 (pM)]
[4] = Table 4a, BHK hAmyR3/CRE-Luc cells, 3 hours, read-out: Human AmyR3 potency [EC50 (pM)]

T1 sequence (P43220 24-463): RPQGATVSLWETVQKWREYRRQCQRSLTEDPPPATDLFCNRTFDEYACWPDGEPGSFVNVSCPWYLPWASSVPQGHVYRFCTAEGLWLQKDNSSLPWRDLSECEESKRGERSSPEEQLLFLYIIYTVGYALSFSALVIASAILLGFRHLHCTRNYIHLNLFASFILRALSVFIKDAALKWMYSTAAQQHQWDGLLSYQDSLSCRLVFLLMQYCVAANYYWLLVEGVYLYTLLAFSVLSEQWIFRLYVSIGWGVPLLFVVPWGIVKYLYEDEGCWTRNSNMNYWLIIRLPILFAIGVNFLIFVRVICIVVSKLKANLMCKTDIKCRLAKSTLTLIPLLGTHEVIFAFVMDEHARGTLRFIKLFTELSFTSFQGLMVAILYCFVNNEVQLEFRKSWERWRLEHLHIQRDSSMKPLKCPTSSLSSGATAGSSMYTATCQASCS
T2 sequence (P30988 25-474): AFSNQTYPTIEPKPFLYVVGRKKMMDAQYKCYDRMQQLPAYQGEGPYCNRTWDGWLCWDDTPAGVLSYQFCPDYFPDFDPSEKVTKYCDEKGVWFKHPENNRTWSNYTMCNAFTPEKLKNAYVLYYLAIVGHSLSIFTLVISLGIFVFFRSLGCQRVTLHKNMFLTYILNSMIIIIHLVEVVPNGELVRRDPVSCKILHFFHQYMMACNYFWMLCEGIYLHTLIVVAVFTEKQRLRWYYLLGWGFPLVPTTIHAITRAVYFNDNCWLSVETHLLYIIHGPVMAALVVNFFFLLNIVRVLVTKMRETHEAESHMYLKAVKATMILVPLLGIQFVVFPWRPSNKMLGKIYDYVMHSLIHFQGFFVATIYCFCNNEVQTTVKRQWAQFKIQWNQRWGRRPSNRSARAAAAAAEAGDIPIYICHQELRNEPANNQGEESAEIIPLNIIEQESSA
T2 sequence (O60896 24-148): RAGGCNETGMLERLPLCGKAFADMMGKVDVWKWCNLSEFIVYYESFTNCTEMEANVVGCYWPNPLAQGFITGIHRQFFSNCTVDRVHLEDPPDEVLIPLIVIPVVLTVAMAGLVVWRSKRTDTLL

| Molecule | EC50 [1, 3] [pM] | EC50 [2, 4] [pM] | also measured |
| --- | --- | --- | --- |
| H-H[Aib]EGTFTSDVSK([γGlu-γGlu-γGlu-γGlu-C20 diacid])YLEEQAAREFIEWLVRGAAEASELSTAALGRLSAELHELATLPRTETGSGSP-NH2 [Compound 0632] | 18.8 | 148 | – |
| H-H[Aib]EGTFTSDVSSYLEEQAARK([AEEA-AEEA-γGlu-C20 diacid])FIAWLVRGRGGGGGEASELSTAALGRLSAELHELATLPRTETGSGSP-NH2 [Compound 0562] | 19.3 | 4.1 | – |
| H-H[Aib]EGTFTSDVSK([AEEA-AEEA-γGlu-C16 diacid])YLEEQAARK([AEEA-AEEA-γGlu-C16 diacid])FIEWLVRGAAEASELSTAALGRLSAELHELATLPRTETGSGSP-NH2 [Compound 0629] | 7.9 | 97.5 | – |
| H-H[Aib]EGTFTSDVSSYLEGQAAK([AEEA-AEEA-γGlu-C20 diacid])EFIAWLVRGRGQEPGQAPEASELSTAALGRLSAELHELATLPRTETGSGSP-NH2 [Compound 0202] | 10.5 | 28.4 | – |
| H-H[Aib]EGTFTSDVSSYLEEQAAREFIAWLVRGRK([AEEA-AEEA-γGlu-C18 diacid])GGGGEKCNTATCATQRLANFLVHSSNNFGPILPPTNVGSNTY-NH2 (disulfide 38-43 (inferred)) [Comparator compound 0671, reference compound] | – | – | EC50 [1]: 4.5 pM; Ability to agonise the GLP-1 receptor, in words ([1]; Tables 4a-4c): retained their potencies on the GLP-1 receptor; EC50 [2]: 230 pM; Ability to agonise the amylin receptor, in words [2]: impaired potency on the amylin receptor |
| H-H[Aib]EGTFTSDVSSYLEEQAAREFIAWLVRGRK([AEEA-AEEA-AEEA-γGlu-C18 diacid])GGGGEASELSTAALGRLSAELHELATLPRTETGSGSP-NH2 [Compound 0661] | 2.8 | 14.4 | – |
| CC[C@H](C)[C@H](NC(=O)[C@H](Cc1ccccc1)NC(=O)[C@H](CCC(=O)O)NC(=O)[C@H](CCCCNC(=O)COCCOCCNC(=O)COCCOCCNC(=O)CC[C@H](NC(=O)CCCCCCCCCCCCCCCCC(=O)O)C(=O)O)NC(=O)[C@H](C)NC(=O)[C@H](C)NC(=O)[C@H](CCC(N)=O)NC(=O)CNC(=O)[C@H](CCC(=O)O)NC(=O)[C@H](CC(C)C)NC(=O)[C@H](Cc1ccc(O)cc1)NC(=O)[C@H](CO)NC(=O)[C@H](CO)NC(=O)[C@@H](NC(=O)[C@H](CC(=O)O)NC(=O)[C@H](CO)NC(=O)[C@@H](NC(=O)[C@H](Cc1ccccc1)NC(=O)[C@@H](NC(=O)CNC(=O)[C@H](CCC(=O)O)NC(=O)C(C)(C)NC(=O)[C@@H](N)Cc1c[nH]cn1)[C@@H](C)O)[C@@H](C)O)C(C)C)C(=O)N[C@@H](C)C(=O)N[C@@H](Cc1c[nH]c2ccccc12)C(=O)N[C@@H](CC(C)C)C(=O)N[C@H](C(=O)N[C@@H](CCCNC(=N)N)C(=O)NCC(=O)N[C@@H](CCCNC(=N)N)C(=O)NCC(=O)N[C@@H](CCCCNC(=O)COCCOCCNC(=O)COCCOCCNC(=O)CC[C@H](NC(=O)CCCCCCCCCCCCCCCCC(=O)O)C(=O)O)C(=O)N[C@@H](CCC(N)=O)C(=O)N[C@@H](CCC(=O)O)C(=O)N1CCC[C@H]1C(=O)NCC(=O)N[C@@H](CCC(N)=O)C(=O)N[C@@H](CCC(=O)O)C(=O)N1CCC[C@H]1C(=O)N[C@@H](CCC(=O)O)C(=O)N[C@@H](C)C(=O)N[C@@H](CO)C(=O)N[C@@H](CCC(=O)O)C(=O)N[C@@H](CC(C)C)C(=O)N[C@@H](CO)C(=O)N[C@H](C(=O)N[C@@H](C)C(=O)N[C@@H](C)C(=O)N[C@@H](CC(C)C)C(=O)NCC(=O)N[C@@H](CCCNC(=N)N)C(=O)N[C@@H](CC(C)C)C(=O)N[C@@H](CO)C(=O)N[C@@H](C)C(=O)N[C@@H](CCC(=O)O)C(=O)N[C@@H](CC(C)C)C(=O)N[C@@H](Cc1c[nH]cn1)C(=O)N[C@@H](CCC(=O)O)C(=O)N[C@@H](CC(C)C)C(=O)N[C@@H](C)C(=O)N[C@H](C(=O)N[C@@H](CC(C)C)C(=O)N1CCC[C@H]1C(=O)N[C@@H](CCCNC(=N)N)C(=O)N[C@H](C(=O)N[C@@H](CCC(=O)O)C(=O)N[C@H](C(=O)NCC(=O)N[C@@H](CO)C(=O)NCC(=O)N[C@@H](CO)C(=O)N1CCC[C@H]1C(N)=O)[C@@H](C)O)[C@@H](C)O)[C@@H](C)O)[C@@H](C)O)C(C)C [Compound 0056] | – | – | EC50 [1]: 41.4 pM; EC50 [2]: 120 pM |
| Desaminohistidyl-[Aib]EGTFTSDVSSYLEEQAAREFIAWLVRGRK([γGlu-C20 diacid])EASELSTAALGRLSAELHELATLPRTETGSGSP-NH2 [Compound 0142] | 88.2 | 15.4 | – |
| H-H[Aib]EGTFTSDVSSYLEEQAARK([AEEA-AEEA-γGlu-C20 diacid])FIEWLVRGASELSTAALGRLSAELHELATLPRTETGSGSP-NH2 [Compound 0581] | 17 | 26.4 | – |
| H-H[Aib]EGTFTSDVSSYLEEQAAREFIAWLVRGK([AEEA-AEEA-γGlu-C16 diacid])GGGGGEASELSTAALGRLSAELHELK([AEEA-AEEA-γGlu-C16 diacid])TLPRTETGSGSP-NH2 [Compound 0281] | 35.2 | 114 | – |
| HWEGTFTSD-K([(2S)-2-Amino-6-[[2-[2-[2-[[2-[2-[2-[[(4S)-4-Carboxy-4-[[4-[(19-Carboxynonadecanoylamino)Methyl]Cyclohexanecarbonyl]Amino]Butanoyl]Amino]Ethoxy]Ethoxy]Acetyl]Amino]Ethoxy]Ethoxy]Acetyl]Amino]Hex Anoyl])-SSYLEEQAAREFIEWLVRGRGEASELSTAALGRLSAELHELATLPRTETGSGSP-amide [Compound 0433] | 30.7 | 12.9 | – |
| H-H[Aib]EGTFTSDVSSYLEEQAAREFIAWLVRGRK([AEEA-AEEA-γGlu-Hexadecanoyl(16-SO3H)])GGGGEASELSTAALGRLSAELHELATLPRTETGSGSP-NH2 [Compound 0654] | 2.9 | 11.3 | – |
| HGEGTFTSDVSSYLEEQAARK([AEEA-AEEA-γGlu-Decanoyl(10-(4-HOOC-PhO))])FIEWLVRGK([AEEA-AEEA-γGlu-Decanoyl(10-(4-HOOC-PhO))])GEGGGGGEASELSTAALGRLSAELHELATLPRTETGSGSP-NH2 [Compound 0097] | – | – | EC50 [1]: 10 pM; EC50 [2]: 93.1 pM |
| H-H[Aib]EGTFTSDVSSYLEK([AEEA-AEEA-γGlu-C16 diacid])QAAREFIAWLVRGRGGGGGASELSTAALGRLSK([AEEA-AEEA-γGlu-C16 diacid])ELHELATLPRTETGSGSP-NH2 [Compound 0294] | 13.7 | 34.3 | – |
| H-H[Aib]EGTFTSDVSK([AEEA-AEEA-γGlu-C14 diacid])YLEEQAVREFIAK([AEEA-AEEA-γGlu-C14 diacid])LVRGRGGGEASELSTAALGRLSAELHELATLPRTETGSGSP-NH2 [Compound 0484] | 72.8 | 32.5 | – |
| H[Aib]EGTFTSDVSSYLEEQAARK([εLys-AEEA-AEEA-γGlu-C18 diacid])FIAWLVRGK([εLys-AEEA-AEEA-γGlu-C18 diacid])GGGGGGGGGEASELSTAALGRLSAELHELATLPRTETGSGSP-NH2 [Compound 0110] | – | – | EC50 [1]: 2.7 pM; EC50 [2]: 40.7 pM |
| HWEGTFTSDVSSYLEEQAAREFIAWLVRGRK([AEEA-AEEA-γGlu-C18 diacid])GGGGEASELSTAALGRLSAELHELATLPRTETGSGSP-NH2 [Compound 0648] | 17 | 9.2 | – |
| H-HGEGTFTSDVSSYLEEQAARK([AEEA-AEEA-γGlu-C16 diacid])FIEWLVRGK([AEEA-AEEA-γGlu-C16 diacid])GEGGEASELSTAALGRLSAELHELATLPRTETGSGSP-NH2 [Compound 0087] | 23.8 | 97.9 | – |
| H-H[Aib]EGTFTSDVSSYLEEQAARK([AEEA-AEEA-γGlu-C16 diacid])FIEWLVRGK([AEEA-AEEA-γGlu-C16 diacid])GEGGEASELSTAALGRLSAELHELATLPRTETGSGSP-NH2 [Compound 0086] | 3.9 | 78.3 | – |
| H-H[Aib]EGTFTSDVSSYLEEQAARK([AEEA-AEEA-γGlu-C16 diacid])FIAWLVRGRGGGGGASELSTAALGRLSK([AEEA-AEEA-γGlu-C16 diacid])ELHELATLPRTETGSGSP-NH2 [Compound 0296] | 4 | 29.9 | – |
| H-H[Aib]EGTFTSDVSSYLEEQAAREFIAWLVRGRK([AEEA-AEEA-γGlu-C20 diacid])GGGGSGGGEASELSTAALGRLSAELHELATLPRTETGSGSP-NH2 [Compound 0638] | 4.6 | 6.9 | – |
| H-H[Aib]EGTFTSDVSSYLEGQAAKEFIAWLVRGRK([εLys-AEEA-AEEA-γGlu-C18 diacid])GGEASELSTAALGRPSAELHELATLPRTETGSGSP-NH2 [Comparator compound 0185, reference compound] | – | – | EC50 ([1]; Table 4c, further comparator compounds): 13.1 pM; EC50 ([2]; Table 4c, further comparator compounds, read-out: Human AmyR3 potency [EC50 (pM)]): 5660 pM; Ability to agonise the amylin receptor, in words [2]: impaired their ability to agonise (activate) the amylin receptor |
| H-H[Aib]EGTFTSDVSSYLEGQAAK([AEEA-AEEA-γGlu-C20 diacid])EFIAWLVRGRGGGGGGGGGEASELSTAALGRLSAELHELATLPRTETGSGSP-NH2 [Compound 0094] | 7.5 | 11.3 | – |
| H-H[Aib]EGTFTSDVSK([γGlu-γGlu-γGlu-γGlu-C16 diacid])YLEEQAARK([γGlu-γGlu-γGlu-γGlu-C16 diacid])FIAWLVRGRGEASELSTAALGRLSAELHELATLPRTETGSGSP-NH2 [Compound 0634] | 14.7 | 59.4 | – |
